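Each compound was tested at five concentrations against cells in 96-well plates for 48 hours. TGI is the concentration that stops growth completely.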
Assays:
Assay in all cases: NCI anticancer screen, dose series, 48 h
A498 renal = test system: A498 renal
U251 CNS = test system: U251 CNS
UO-31 renal = test system: UO-31 renal
SW-620 colon = test system: SW-620 colon
IGROV1 ovarian = test system: IGROV1 ovarian
SF-539 CNS = test system: SF-539 CNS
OVCAR-8 ovarian = test system: OVCAR-8 ovarian
OVCAR-3 ovarian = test system: OVCAR-3 ovarian
SK-MEL-28 melanoma = test system: SK-MEL-28 melanoma
MALME-3M melanoma = test system: MALME-3M melanoma
SK-MEL-2 melanoma = test system: SK-MEL-2 melanoma
MDA-MB-435 = test system: MDA-MB-435
RXF 393 renal = test system: RXF 393 renal
M14 melanoma = test system: M14 melanoma
SF-295 CNS = test system: SF-295 CNS
NCI-H460 lung = test system: NCI-H460 lung
HL-60(TB) leukemia = test system: HL-60(TB) leukemia
LOX IMVI melanoma = test system: LOX IMVI melanoma
SNB-75 CNS = test system: SNB-75 CNS
CAKI-1 renal = test system: CAKI-1 renal
TK-10 renal = test system: TK-10 renal
COLO 205 colon = test system: COLO 205 colon
MDA-MB-231 breast = test system: MDA-MB-231 breast
NCI-H522 lung = test system: NCI-H522 lung
SF-268 CNS = test system: SF-268 CNS
CCRF-CEM leukemia = test system: CCRF-CEM leukemia
SNB-19 CNS = test system: SNB-19 CNS
HOP-62 NSCLC = test system: HOP-62 NSCLC
T-47D breast = test system: T-47D breast
SR leukemia = test system: SR leukemia
HT29 colon = test system: HT29 colon
OVCAR-4 ovarian = test system: OVCAR-4 ovarian
RPMI-8226 leukemia = test system: RPMI-8226 leukemia
PC-3 prostate = test system: PC-3 prostate
SN12C renal = test system: SN12C renal
786-0 renal = test system: 786-0 renal
HS 578T breast = test system: HS 578T breast
K-562 leukemia = test system: K-562 leukemia
UACC-62 melanoma = test system: UACC-62 melanoma
NCI-H226 lung = test system: NCI-H226 lung
MOLT-4 leukemia = test system: MOLT-4 leukemia
SK-MEL-5 melanoma = test system: SK-MEL-5 melanoma
OVCAR-5 ovarian = test system: OVCAR-5 ovarian
KM12 colon = test system: KM12 colon
HOP-92 NSCLC = test system: HOP-92 NSCLC
MCF7 breast = test system: MCF7 breast
HCC-2998 colon = test system: HCC-2998 colon
A549 NSCLC = test system: A549 NSCLC
HCT-116 colon = test system: HCT-116 colon
UACC-257 melanoma = test system: UACC-257 melanoma
NCI-H23 lung = test system: NCI-H23 lung
NCI/ADR-RES ovarian = test system: NCI/ADR-RES ovarian
BT-549 breast = test system: BT-549 breast
ACHN renal = test system: ACHN renal
EKVX NSCLC = test system: EKVX NSCLC
DU-145 prostate = test system: DU-145 prostate
MDA-N = test system: MDA-N
HCT-15 colon = test system: HCT-15 colon
SK-OV-3 ovarian = test system: SK-OV-3 ovarian

Compound: CC(C)Cc1cc2c(cc1O)CCC1C2CC[C@@]2(C)C1CC[C@@H]2O (some centres undefined)
- TGI (A498 renal): 35.5 µM
- TGI (U251 CNS): 27 µM
- TGI (UO-31 renal): 13.4 µM
- TGI (SW-620 colon): 25.4 µM
- TGI (IGROV1 ovarian): 33.1 µM
- TGI (SF-539 CNS): 40.6 µM
- TGI (OVCAR-8 ovarian): 22.3 µM
- TGI (OVCAR-3 ovarian): 16.6 µM
- TGI (SK-MEL-28 melanoma): 28.8 µM
- TGI (MALME-3M melanoma): 37 µM
- TGI (SK-MEL-2 melanoma): 15.7 µM
- TGI (MDA-MB-435): 27.8 µM
- TGI (RXF 393 renal): 16.3 µM
- TGI (M14 melanoma): 19.3 µM
- TGI (SF-295 CNS): 20.2 µM
- TGI (NCI-H460 lung): 25.5 µM
- TGI (HL-60(TB) leukemia): 8 µM
- TGI (LOX IMVI melanoma): 18.2 µM
- TGI (SNB-75 CNS): 33.3 µM
- TGI (CAKI-1 renal): 35.6 µM
- TGI (TK-10 renal): 23.1 µM
- TGI (COLO 205 colon): 28.9 µM
- TGI (MDA-MB-231 breast): 20 µM
- TGI (NCI-H522 lung): 26 µM
- TGI (SF-268 CNS): 39.4 µM
- TGI (CCRF-CEM leukemia): 27.1 µM
- TGI (SNB-19 CNS): 21.1 µM
- TGI (HOP-62 NSCLC): 33.1 µM
- TGI (T-47D breast): 23.4 µM
- TGI (SR leukemia): 19.8 µM
- TGI (HT29 colon): 21.6 µM
- TGI (OVCAR-4 ovarian): 24.3 µM
- TGI (RPMI-8226 leukemia): 20.4 µM
- TGI (PC-3 prostate): 21 µM
- TGI (SN12C renal): 21.9 µM
- TGI (786-0 renal): 23.6 µM
- TGI (HS 578T breast): 23.7 µM
- TGI (K-562 leukemia): 19.6 µM
- TGI (UACC-62 melanoma): 21.2 µM
- TGI (NCI-H226 lung): 14.2 µM
- TGI (MOLT-4 leukemia): 17.2 µM
- TGI (SK-MEL-5 melanoma): 20.3 µM
- TGI (OVCAR-5 ovarian): 34.2 µM
- TGI (KM12 colon): 17.4 µM
- TGI (HOP-92 NSCLC): 26.6 µM
- TGI (MCF7 breast): 25.9 µM
- TGI (HCC-2998 colon): 36.1 µM
- TGI (A549 NSCLC): 21.4 µM
- TGI (HCT-116 colon): 16.2 µM
- TGI (UACC-257 melanoma): 35.1 µM
- TGI (NCI-H23 lung): 26.4 µM
- TGI (NCI/ADR-RES ovarian): 20.9 µM
- TGI (BT-549 breast): 14.2 µM
- TGI (ACHN renal): 20 µM
- TGI (EKVX NSCLC): 26.3 µM
- TGI (DU-145 prostate): 23.1 µM
- TGI (MDA-N): 19.7 µM
- TGI (HCT-15 colon): 21.7 µM
- TGI (SK-OV-3 ovarian): 24.3 µM
